# Results taken from PubChem BioAssay AID602404 (Sanford-Burnham Center for Chemical Genomics, 2012).
# Values joined by “and” are separate entries in the source; they are usually repeats but may differ in a detail not shown here. Equal entries are not always repeated. Active and inactive are the calls of the source. No rule for the calls is given here.
# Biological target: Ubiquitin-conjugating enzyme E2 N (Homo sapiens) (UniProt P61088)
# Experiment: UBC13 polyubiquitination inhibitors, SAR follow-up, biochemical, TR-FRET, set 4 (AID 602404)
# Ubiquitin-conjugating enzyme E2 N (Homo sapiens), sequence (P61088 whole entry, looked up): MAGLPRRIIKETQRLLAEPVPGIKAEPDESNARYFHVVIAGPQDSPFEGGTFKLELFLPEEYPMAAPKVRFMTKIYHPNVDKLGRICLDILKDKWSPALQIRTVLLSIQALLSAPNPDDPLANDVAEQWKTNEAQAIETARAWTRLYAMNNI
row,SMILES,IC50
1,CCC1CCCCN1CCCNC(=O)C1CCN(c2ncnc3c2nc2n3CCCCC2)CC1 (stereo not given),5.66 µM
2,Cc1cc(C)cc(NC(=O)C2CCCN(c3ncnc4c3nc3n4CCCC3)C2)c1 (stereo not given),inactive
3,Cc1cc(C)cc(NC(=O)C2CCCN(c3ncnc4c3nc3n4CCCCC3)C2)c1 (stereo not given),inactive
4,Cc1ccccc1CN1CCC(CNC(=O)C2CCCN(c3ncnc4c3nc3n4CCCCC3)C2)CC1 (stereo not given),3.55 µM
5,O=C(C1CCN(c2ncnc3c2nc2n3CCCCC2)CC1)N1CCN(c2ccccn2)CC1,inactive
6,O=C(NCC1CCN(Cc2cccc(Cl)c2)CC1)C1CCCN(c2ncnc3c2nc2n3CCCC2)C1 (stereo not given),0.962 µM
7,COc1ccc(Cl)cc1NC(=O)C1CCN(c2ncnc3c2nc2n3CCCCC2)CC1,inactive
8,O=C(NCC1CCN(Cc2cccc(Cl)c2)CC1)[C@H]1CCCN(c2ncnc3c2nc2n3CCCC2)C1,2.66 µM
9,O=C(NCc1ccc(Cl)c(Cl)c1)C1CCN(c2ncnc3c2nc2n3CCCCC2)CC1,> 100 µM (inactive)
10,O=C(NCC1CCN(Cc2ccccc2F)CC1)C1CCCN(c2ncnc3c2nc2n3CCCCC2)C1 (stereo not given),8.42 µM
11,Cc1ccc(C)c(CN2CCC(CNC(=O)C3CCCN(c4ncnc5c4nc4n5CCCCC4)C3)CC2)c1 (stereo not given),2.69 µM
12,O=C(NCC1CCN(Cc2ccc(F)cc2)CC1)C1CCCN(c2ncnc3c2nc2n3CCCCC2)C1 (stereo not given),2.87 µM
13,Cc1ccc(NC(=O)C2CCCN(c3ncnc4c3nc3n4CCCC3)C2)cc1F (stereo not given),inactive
14,O=C(NCc1cccc(Cl)c1)C1CCCN(c2ncnc3c2nc2n3CCCCC2)C1 (stereo not given),inactive
15,O=C(NCC1CCN(Cc2cccc(Cl)c2)CC1)[C@@H]1CCCN(c2ncnc3c2nc2n3CCCCC2)C1,3.37 µM
16,O=C(NCc1cccc(Cl)c1)C1CCN(c2ncnc3c2nc2n3CCCCC2)CC1,inactive
17,O=C(NCC1CCN(Cc2ccc(Cl)cc2)CC1)C1CCCN(c2ncnc3c2nc2n3CCCCC2)C1 (stereo not given),2.75 µM
18,Cc1cccc(NC(=O)C2CCCN(c3ncnc4c3nc3n4CCCC3)C2)c1 (stereo not given),inactive
19,CN(CCNC(=O)C1CCN(c2ncnc3c2nc2n3CCCCC2)CC1)Cc1ccccc1,1.23 µM
20,Cc1cccc(NC(=O)C2CCCN(c3ncnc4c3nc3n4CCCCC3)C2)c1 (stereo not given),> 100 µM (inactive)
21,O=C(NCc1ccc(Cl)c(Cl)c1)C1CCCN(c2ncnc3c2nc2n3CCCC2)C1 (stereo not given),inactive

row,SMILES,IC50
1,Cc1ccc(NC(=O)C2CCCN(c3ncnc4c3nc3n4CCCC3)C2)cc1C (stereo not given),inactive
2,O=C(C1CCN(c2ncnc3c2nc2n3CCCCC2)CC1)N1CCN(Cc2ccccc2)CC1,3.05 µM
3,O=C(Nc1ccc(CN2CCCCC2)cc1)C1CCN(c2ncnc3c2nc2n3CCCCC2)CC1,inactive
4,Cc1ccc(NC(=O)C2CCN(c3ncnc4c3nc3n4CCCCC3)CC2)cc1F,inactive
5,O=C(NCC1CCN(Cc2cccc(Cl)c2)CC1)[C@@H]1CCCN(c2ncnc3c2nc2n3CCCC2)C1,0.781 µM
6,O=C(c1ccco1)N1CCN(C(=O)C2CCN(c3ncnc4c3nc3n4CCCCC3)CC2)CC1,inactive
7,Cc1ccc(NC(=O)C2CCN(c3ncnc4c3nc3n4CCCC3)CC2)cc1C,inactive
8,Cc1cc(C)cc(NC(=O)C2CCN(c3ncnc4c3nc3n4CCCC3)CC2)c1,inactive
9,O=C(C1CCN(c2ncnc3c2nc2n3CCCCC2)CC1)N1CCOCC1,inactive
10,O=C(NCC1CCN(Cc2ccccc2Cl)CC1)C1CCCN(c2ncnc3c2nc2n3CCCCC2)C1 (stereo not given),2.28 µM
11,O=C(Nc1cccc(Cl)c1)C1CCN(c2ncnc3c2nc2n3CCCCC2)CC1,5.75 µM
12,COc1cc(Cl)c(C)cc1NC(=O)C1CCN(c2ncnc3c2nc2n3CCCCC2)CC1,> 100 µM (inactive)
13,Cc1ccc(NC(=O)C2CCCN(c3ncnc4c3nc3n4CCCC3)C2)cc1Br (stereo not given),inactive
14,O=C(NCCCN1CCN(c2ccccc2)CC1)C1CCCN(c2ncnc3c2nc2n3CCCCC2)C1 (stereo not given),3.06 µM
15,Cc1ccc(NC(=O)C2CCN(c3ncnc4c3nc3n4CCCCC3)CC2)cc1Br,> 100 µM (inactive)
16,O=C(NCC1CCN(Cc2ccc(Cl)c(Cl)c2)CC1)C1CCCN(c2ncnc3c2nc2n3CCCC2)C1 (stereo not given),5.74 µM
17,Cc1ccc(NC(=O)C2CCN(c3ncnc4c3nc3n4CCCCC3)CC2)c(Cl)c1,> 100 µM (inactive)
18,O=C(C1CCN(c2ncnc3c2nc2n3CCCCC2)CC1)N1CCC(Cc2ccccc2)CC1,14 µM
19,Cc1ccc(NC(=O)C2CCCN(c3ncnc4c3nc3n4CCCCC3)C2)cc1F (stereo not given),inactive
20,Cc1cccc(NC(=O)C2CCN(c3ncnc4c3nc3n4CCCC3)CC2)c1,inactive

# The remaining lines, values ahead:
row,IC50,SMILES
1,8.74 µM,CC1CCCC(C)N1CCCNC(=O)C1CCCN(c2ncnc3c2nc2n3CCCCC2)C1 (stereo not given)
2,inactive,O=C(Nc1cc(F)ccc1F)C1CCN(c2ncnc3c2nc2n3CCCCC2)CC1
3,6.79 µM,O=C(NCC1CCN(Cc2ccc(Cl)cc2)CC1)C1CCCN(c2ncnc3c2nc2n3CCCC2)C1 (stereo not given)
4,inactive,Cc1cc(Cl)ccc1NC(=O)C1CCN(c2ncnc3c2nc2n3CCCCC2)CC1
5,4.03 µM,O=C(NCC1CCN(Cc2ccc(Cl)c(Cl)c2)CC1)C1CCCN(c2ncnc3c2nc2n3CCCCC2)C1 (stereo not given)
6,2.22 µM,O=C(NCCCN1CCN(c2ccc(F)cc2)CC1)C1CCCN(c2ncnc3c2nc2n3CCCCC2)C1 (stereo not given)
7,3.95 µM,Cc1ccc(NC(=O)C2CCN(c3ncnc4c3nc3n4CCCCC3)CC2)cc1Cl
8,11.8 µM,Cc1c(Cl)cccc1NC(=O)C1CCN(c2ncnc3c2nc2n3CCCCC2)CC1
9,12.6 µM,O=C(NCc1cccc(Cl)c1)C1CCN(c2ncnc3c2nc2n3CCCC2)CC1
10,9.51 µM,Cc1ccc(C)c(N2CCN(CCCNC(=O)C3CCCN(c4ncnc5c4nc4n5CCCCC4)C3)CC2)c1 (stereo not given)
11,5.67 µM,O=C(Nc1ccc(F)c(Cl)c1)C1CCN(c2ncnc3c2nc2n3CCCCC2)CC1
12,1.04 µM,O=C(NCC1CCN(Cc2ccccc2Cl)CC1)C1CCCN(c2ncnc3c2nc2n3CCCC2)C1 (stereo not given)
13,> 100 µM (inactive),O=C(NCc1ccc(Cl)c(Cl)c1)C1CCCN(c2ncnc3c2nc2n3CCCCC2)C1 (stereo not given)
14,inactive,COc1cc(OC)c(NC(=O)C2CCN(c3ncnc4c3nc3n4CCCCC3)CC2)cc1Cl
15,inactive,O=C(C1CCN(c2ncnc3c2nc2n3CCCCC2)CC1)N1CCN(c2ncccn2)CC1
16,inactive,Cc1cccc(NC(=O)C2CCN(c3ncnc4c3nc3n4CCCCC3)CC2)c1
17,3.42 µM,O=C(NCCCN1CCCCC1)C1CCN(c2ncnc3c2nc2n3CCCCC2)CC1

row,IC50,SMILES
1,inactive,Cc1cccc(NC(=O)C2CCN(c3ncnc4c3nc3n4CCCCC3)CC2)c1C
2,> 100 µM (inactive),Cc1cc(C)cc(NC(=O)C2CCN(c3ncnc4c3nc3n4CCCCC3)CC2)c1
3,inactive,O=C(C1CCN(c2ncnc3c2nc2n3CCCCC2)CC1)N1CCN(c2ccc(F)cc2)CC1
4,inactive,O=C(C1CCN(c2ncnc3c2nc2n3CCCCC2)CC1)N1CCN(c2ccccc2)CC1
5,> 100 µM (inactive),O=C(NCc1ccc(Cl)c(Cl)c1)C1CCN(c2ncnc3c2nc2n3CCCC2)CC1
6,inactive,CC1CC(C)CN(C(=O)C2CCN(c3ncnc4c3nc3n4CCCCC3)CC2)C1 (stereo not given)
7,inactive,COc1ccc(NC(=O)C2CCN(c3ncnc4c3nc3n4CCCCC3)CC2)cc1Cl
8,> 100 µM (inactive),O=C(NCc1cccc(Cl)c1)C1CCCN(c2ncnc3c2nc2n3CCCC2)C1 (stereo not given)
9,19.1 µM,Cc1cccc(N2CCN(CCCNC(=O)C3CCCN(c4ncnc5c4nc4n5CCCCC4)C3)CC2C)c1 (stereo not given)
10,inactive,Cc1ccc(NC(=O)C2CCN(c3ncnc4c3nc3n4CCCC3)CC2)cc1F
11,> 100 µM (inactive),CC1CCCCN1C(=O)C1CCN(c2ncnc3c2nc2n3CCCCC2)CC1 (stereo not given)
12,3.05 µM,CCCN1CCN(C(=O)C2CCN(c3ncnc4c3nc3n4CCCCC3)CC2)CC1
13,> 100 µM (inactive),Cc1ccc(NC(=O)C2CCCN(c3ncnc4c3nc3n4CCCCC3)C2)cc1Br (stereo not given)
14,inactive,COc1ccccc1N1CCN(CCCNC(=O)C2CCCN(c3ncnc4c3nc3n4CCCCC3)C2)CC1 (stereo not given)
15,0.813 µM and 1.13 µM,O=C(NCC1CCN(Cc2cccc(Cl)c2)CC1)C1CCCN(c2ncnc3c2nc2n3CCCCC2)C1 (stereo not given)
16,inactive,Cc1ccc(NC(=O)C2CCN(c3ncnc4c3nc3n4CCCC3)CC2)cc1Br
17,15 µM,O=C(NCC1CCN(Cc2cccc(Cl)c2)CC1)[C@H]1CCCN(c2ncnc3c2nc2n3CCCCC2)C1
